US20150173364A1, “HERBICIDAL COMPOSITIONS CONTAINING FLUMIOXAZIN, AMINOPYRALID AND FLUROXYPYR OR 2,4-D” (Dow AgroSciences LLC, priority 2013, published 2015)

System: BOIVE: whitehead broom (Borerria verticillata)
Experiment: Postemergence herbicidal activity of mixtures in the field, visual weed control
Type: in vivo
Details: postemergence field trial
Protocol: Field trials were conducted in Brazil in pasture area cultivated with Brachiaria brizantha using standard herbicide small-plot research methodology. The plot size used was 3 meters (m)×8 m (width×length) with 4 replicates per treatment. The pasture was grown using normal cultural practices for fertilization, management, and maintenance to ensure good growth of the crop and the weeds. […] All treatment results, both for the single product and mixtures, are an average of 3 to 4 replicates and the tank-mix interactions are significant at the […] level. Colby's equation was used to determine the herbicidal effects expected from the mixtures (Colby, S. R. Calculation of the synergistic and antagonistic response of herbicide combinations. […] However, the experiments described herein were performed such that active ingredients B and C were combined and only the efficacy of the combination was determined. As such, Colby's equation simplifies to Expected=A+Z−(AZ/100) A=observed efficacy of active ingredient A (flumioxazin) at the same concentration as used in the mixture; […] All comparisons are an average of 3 to 4 replicates and are significant at the […] level.

SMILES: C#CCN1C(=O)COc2cc(F)c(N3C(=O)C4=C(CCCC4)C3=O)cc21 [Flumioxazin, 2-[7-fluoro-3,4-dihydro-3-oxo-4-(2-propyn-1-yl)-2H-1,4-benzoxazin-6-yl]-4,5,6,7-tetrahydro-1H-isoindole-1,3(2H)-dione]
- % Visual Control BOIVE (281 DAA) Obs (Flumioxazin 25 g ai/ha alone): 0%
- % Visual Control BOIVE (281 DAA) Obs (Flumioxazin 50 g ai/ha alone): 0%
- % Visual Control BOIVE (281 DAA) Obs (Flumioxazin 75 g ai/ha alone): 4%
- % Visual Control BOIVE (281 DAA) Obs (Flumioxazin 100 g ai/ha alone): 13%
- % Visual Control BOIVE (281 DAA) Obs (Flumioxazin 125 g ai/ha alone): 14%
